Laboratory results as given in paper PMC6739136 (Neuropeptides, 2019).

System: urinary bladder pressure, anesthetized minipigs
Assay: Cystometry
Type: in vivo, minipig (Gottingen, Sinclair)
Details: GR 159897 1 mg/kg IV, 15 min prior to LMN-NKA, N=2, anesthetized minipigs, DT-063

Question: With `COC1(C[S@@+]([O-])c2ccccc2)CCN(CCc2c[nH]c3ccc(F)cc23)CC1` [GR 159897, 5-Fluoro-3-[2-[4-methoxy-4-[[(R)-phenylsulphinyl]methyl]-1-piperidinyl]ethyl]-1H-indole] as the compound, how does the “effect on increase in bladder pressure induced by 100 μg/kg SC of LMN-NKA” value read?
Answer: blocked
